In patent publication US10633707B2, “Markers for detecting microsatellite instability in cancer and determining synthetic lethality with inhibition of the DNA base excision repair pathway” (VIB VZW, priority 2012, dated 2020):
Entries after “also recorded” stand apart in the source; their conditions may differ.

Tests used:
[1] = system: MMR-deficient primary tumor cultures and cancer cell lines; experiment: RAD51 immunostaining (RAD51 foci formation) after olaparib, MMR-deficient cells; type: cell-based, human; conditions: 10 μM olaparib, 24 hours, average of 8 MMR-deficient cultures
Procedure: (§1) To investigate whether the DSB repair by HR pathway is functionally inactivated in MMR-deficient tumors, it was assessed the DSB repair activity in eight MMR-deficient and four MMR-proficient primary tumor cultures and cancer cell lines. The MMR status of these cells was analyzed using the 56-marker panel and confirmed by the Bethesda Panel.
(§2) Nine primary endometrial and ovarian tumor cell cultures were established from patients undergoing surgery at the Division of Gynecologic Oncology, University Hospitals Gasthuisberg, Leuven (Belgium). Only after providing informed consent, patients were included in the study. The following protocol was used to generate primary tumor cultures. First, tumor samples were placed into sterile RPMI medium supplemented with Penicillin/Streptomycin (1000 U/ml) and Fungizone (0.5 μg/ml) (all from Life Technologies) for transport from the surgery room to the cell culture laboratory. […]
(§3) Primary tumor cell cultures were grown in RPMI Medium 1640 (Gibco) supplemented with 20% fetal bovine serum, 2 mM L-Glutamine, 100 U/ml of penicillin, 100 μg/ml of streptomycin, 1 μg/ml of fungizone and 10 μg/ml of gentamicin up to 20 passages. […] They were also routinely monitored for Mycoplasma contamination and no Mycoplasma growth has been detected. […]

[2] = system: MMR-proficient primary tumor cultures and cancer cell lines; experiment: RAD51 immunostaining (RAD51 foci formation) after olaparib, MMR-proficient cells; type: cell-based, human; conditions: 10 μM olaparib, 24 hours, average of 4 MMR-proficient cultures
Procedure: as §1, §2, §3

[3] = system: MMR-deficient and MMR-proficient tumor cells; experiment: γH2AX immunostaining (unrepaired DNA damage) after olaparib; type: cell-based, human; conditions: all cells regardless of MMR status
Procedure: Primary tumor cultures and immunofluorescence: Nine primary endometrial and ovarian tumor cell cultures were established from tumors of the patients undergoing surgery. Primary tumor cell cultures were grown in RPMI1640 medium (GIBCO) supplemented with 20% FBS, 2 mM L-Glutamine, 100 U/ml penicillin, 100 μg/ml streptomycin, 1 μg/ml fungizone and 10 μg/ml gentamicin up to 20 passages. 25,000 cells/well were seeded on eight-well slides (Nunc) in 400 μl medium and grown for 24 hours. Following exposure to 0 or 10 μM olaparib, slides were rinsed in PBS, fixed in paraformaldehyde at 37° C., permeabilized with 0.1% Triton X-100 and blocked with BSA. […] The percentage of foci positive cells (>5 foci per nucleus) was determined on a Zeiss LSM 510 inverted confocal microscope using Plan-Neofluar 40×/1.3 oil immersion objective. For each experiment, at least 100 nuclei were analyzed.
The degree of unrepaired DNA damage upon olaparib treatment was measured with γH2AX immunofluorescence. […]
γH2AX and RAD51 foci were visualized with Zeiss LSM 510 inverted confocal microscope using Plan-Neofluar 40x/1.3 oil immersion objective and excitation wavelengths of 488 and 750 nm (Chameleon coherent two-photon laser). […] Nuclei with >5 foci were scored positive, and at least 100 nuclei were counted per culture and per condition.

MMR-deficient cells = experiment: Cell proliferation with xCELLigence RTCA system, MMR-deficient cells; type: cell-based, human; conditions: for decrease in proliferation versus untreated cells: average of 8 MMR-deficient cultures, 48 hours
Procedure: (§4) As MMR-deficient tumors are characterized by reduced activity of the DSB repair by HR pathway, it was hypothesized that these tumors, similar to BRCA1-deficient tumors (Farmer et al., 2005), can be selectively targeted by PARP inhibition. All eight MMR-deficient and four MMR-proficient cultures were dose-dependently (1, 3 and 10 μM) exposed to olaparib and effects on proliferation were assessed.
(§5) Real-Time Cell Analyzer (RTCA) xCELLigence System (Roche Applied Science, Mannheim, Germany) was used to dynamically monitor cell proliferation rates. The system measures electrical impedance across microelectrodes on the bottom of tissue culture E-plates. The impedance measurement provides quantitative information about cell number, viability, morphology and adhesion. 5,000 cells/well were seeded on E-plate 16 (Roche) in 200 μl medium. 24 hours post-seeding, cells were treated with olaparib to the desired final concentration (1, 3, 10 μM olaparib). The final DMSO percent in all wells was 0.1%. Each treatment condition was measured in triplicate. Dynamic cell index values were monitored in five-minute intervals for 48 hours after treatments. Cell index values were normalized to the vehicle-treated control for each cell.
Cell Proliferation: Real-Time Cell Analyzer (RTCA) xCELLigence System (Roche) was used to dynamically monitor cell proliferation rates. 5,000 cells/well were seeded on E-plate 16 (Roche) in 200 μl medium. Olaparib (AZD-2281, JS Research Chemicals Trading) was dissolved in DMSO. 24 hours post-seeding, cells were treated with olaparib ([…]). Each condition was measured in triplicate and all experiments were done in duplicate at different time points. Dynamic cell index values were monitored for 48 hours after treatment.

MMR-proficient cells = experiment: Cell proliferation with xCELLigence RTCA system, MMR-proficient cells; type: cell-based, human; conditions: 1, 3 and 10 μM olaparib, 48 hours
Procedure: as §4
as §5, with “24 hours post-seeding, cells were treated with olaparib to the desired final concentration (1, 3, 10 μM olaparib). The final DMSO percent in all wells was 0.1%.” left out, “Cell index values were normalized to the vehicle-treated control for each cell.” left out
Cell Proliferation: Real-Time Cell Analyzer (RTCA) xCELLigence System (Roche) was used to dynamically monitor cell proliferation rates. […] Each condition was measured in triplicate and all experiments were done in duplicate at different time points. Dynamic cell index values were monitored for 48 hours after treatment.

BRCA1-deficient cells = conditions: 3 μM olaparib; cited from earlier work
BRCA2-deficient cells = conditions: 10 μM olaparib; cited from earlier work

O=C(c1cc(Cc2n[nH]c(=O)c3ccccc23)ccc1F)N1CCN(C(=O)C2CC2)CC1 [olaparib]
cells showing RAD51 foci formation (>5 foci per nucleus) [1]: 19±3%
cells showing RAD51 foci formation (>5 foci per nucleus) [2]: 37±4%
increase in number of γH2AX foci compared to baseline ([3]; 10 μM olaparib): 4-6 fold
number of γH2AX foci (in words) ([3]; olaparib): drastically increased
decrease in proliferation versus untreated cells (MMR-deficient cells; 1 μM olaparib): 15%
decrease in proliferation versus untreated cells (MMR-deficient cells; 3 μM olaparib): 20%
decrease in proliferation versus untreated cells (MMR-deficient cells; 10 μM olaparib): 42%
effect on proliferation (in words) (MMR-deficient cells; 1, 3 and 10 μM olaparib, MMR-deficient cells): dose-dependent decrease in proliferation
effect on proliferation (in words) (MMR-proficient cells): no effect; also recorded: did not respond to olaparib
decrease in viability (BRCA1-deficient cells): 78%
decrease in viability (BRCA2-deficient cells): 91%
